Measured values from the NIST ThermoML archive (doi:10.1021/acs.jced.6b00008).
± gives the expanded uncertainty stated by the source.

What was measured:
[1] = Crystal; DTA
[2] = Molar enthalpy of transition or fusion; details: Crystal; DSC

O=C(/C=C/c1ccc(O)c(O)c1)O[C@H](Cc1ccc(O)c(O)c1)C(=O)O [rosmarinic acid]
Normal melting temperature [1]: 160.96 ± 3.4 °C
Molar enthalpy of transition or fusion [2]: 3.92 ± 0.335 kcal/mol
